Results from patent publication US20240270762A1, “PENICILLIN-BINDING PROTEIN INHIBITORS” (priority 2021, published 2024).
In brackets after ≈: the same amount, converted by molar mass.

Key:
K. pneumoniae UMM = experiment: microbe, parasite or virus in culture; format: cell-based; conditions: Klebsiella pneumoniae, read-out: MIC K. pneumoniae UMM
N. gonorrhoeae WHO Z = experiment: Liquid broth MIC in Fastidious broth; conditions: Neisseria gonorrhoeae, read-out: Minimum Inhibitory Concentration (MIC), N. gonorrhoeae WHO Z
Procedure: Additional antibacterial testing of the series was performed in 8 reference strains of N. gonorrhoeae (ATCC 49226, FA1090, MS 11, WHO G, WHO L, WHO M, WHO K, WHO X, WHO Z, WHO Q, CDC-0197). ATCC 49226, FA1090, MS11, WHO G, WHO L, and WHO M produce wild type or wild-type like PBP2. WHO K, WHO X, WHO Z, WHO Q, and CDC-0197 produce mosaic PBP2. Liquid broth-based assays were used for antibacterial testing of PBP inhibitors in Neisseria gonorrhoeae. Briefly, cryo-preserved bacterial cultures of clinical strains were streaked for isolation on Chocolate Agar (72 g/L (2×) GC Agar Base (BD #228950) and 2% (2×) Hemoglobin was autoclaved at 121° C. for 20 minutes to sterilize. Once cooled to ˜50° C. the 2×GC Agar Base and 2× Hemoglobin solutions are combined and 1% IsoVitaleX Enrichment (BD #211876) was added to the solution). Strains were incubated at 36° C. and 5% CO2 to allow growth of colonies, 24 hours before inoculum preparation. 2-fold serial dilutions of test compounds were conducted in a 96 well plate with a final volume of 75 μL per well at 2-fold the final desired concentration in Fastidious broth (Remel #R07664). For preparation of assay inoculum, a direct suspension was prepared by aseptically swabbing 10-15 colonies from agar plates into culture tubes containing 2 mL of fresh sterile saline. After the dilution plates were set up, direct suspensions were then diluted in a cuvette containing sterile saline and the optical density was measured at 600 nm. Inocula were diluted such that 75 μL of this culture in Fastidious broth results in a starting bacterial concentration of 5×10^5 CFU/mL when added to the dilution plates. The plates were incubated for ˜24 hours at 36° C. and 5% CO2.

[1] = test system: N. gonorrhoeae ATCC 49226; experiment: Liquid broth MIC in Fastidious broth; conditions: Neisseria gonorrhoeae, ATCC49226, read-out: Minimum Inhibitory Concentration (MIC), N. gonorrhoeae ATCC 49226
E. coli AG100A = experiment: Broth microdilution MIC in CAMHB; format: cell-based; conditions: Escherichia coli, read-out: MIC E. coli AG100A
P. aeruginosa ATCC 27853 = experiment: microbe, parasite or virus in culture; format: cell-based; conditions: Pseudomonas aeruginosa, ATCC27853, read-out: MIC P. aeruginosa ATCC 27853
N. gonorrhoeae MS11 = experiment: Liquid broth MIC in Fastidious broth; conditions: Neisseria gonorrhoeae, MS11, read-out: Minimum Inhibitory Concentration (MIC), N. gonorrhoeae MS11
N. gonorrhoeae WHO M = experiment: Liquid broth MIC in Fastidious broth; conditions: Neisseria gonorrhoeae, read-out: Minimum Inhibitory Concentration (MIC), N. gonorrhoeae WHO M
N. gonorrhoeae FA1090 = experiment: Liquid broth MIC in Fastidious broth; conditions: Neisseria gonorrhoeae, FA1090, read-out: Minimum Inhibitory Concentration (MIC), N. gonorrhoeae FA 1090
[2] = target: T1, PBP3 from Pseudomonas aeruginosa (PAO1) (Pseudomonas aeruginosa, UniProt G3XD46); experiment: Bocillin-FL fluorescence polarization competition binding, P. aeruginosa PBP3; conditions: Binding affinity to P. aeruginosa PBP3; fluorescence polarization competition binding assay using Bocillin-FL; read-out: P. aeruginosa PBP3 Potency
T1 construct: made in house
Summary of the method: (§1)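 Purified PBPs pre-incubated with inhibitor (E. coli PBP3 1.5 μM, 30 min; P. aeruginosa PBP3 0.75 μM, A. baumannii PBP1a 1 μM and PBP3 0.2 μM, 15 min), then Bocillin-FL 0.1 μM (0.05 μM for PBP1a) added; FP read up to 60 min. EC50 = concentration halving bound Bocillin-FL.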

K. pneumoniae 848844 = experiment: microbe, parasite or virus in culture; format: cell-based; conditions: Klebsiella pneumoniae, 848844, read-out: MIC K. pneumoniae 848844
E. coli AG100 = experiment: microbe, parasite or virus in culture; format: cell-based; conditions: Escherichia coli, AG100, read-out: MIC E. coli AG100
E. coli D22 = experiment: microbe, parasite or virus in culture; format: cell-based; conditions: Escherichia coli, D22, read-out: MIC E. coli D22
[3] = target: T2, PBP3 from Escherichia coli (K-12) (Escherichia coli, UniProt P0AD68); experiment: Bocillin-FL fluorescence polarization competition binding, E. coli PBP3
T2 construct: made in house
Summary of the method: as §1

T2 sequence (P0AD68 1-577): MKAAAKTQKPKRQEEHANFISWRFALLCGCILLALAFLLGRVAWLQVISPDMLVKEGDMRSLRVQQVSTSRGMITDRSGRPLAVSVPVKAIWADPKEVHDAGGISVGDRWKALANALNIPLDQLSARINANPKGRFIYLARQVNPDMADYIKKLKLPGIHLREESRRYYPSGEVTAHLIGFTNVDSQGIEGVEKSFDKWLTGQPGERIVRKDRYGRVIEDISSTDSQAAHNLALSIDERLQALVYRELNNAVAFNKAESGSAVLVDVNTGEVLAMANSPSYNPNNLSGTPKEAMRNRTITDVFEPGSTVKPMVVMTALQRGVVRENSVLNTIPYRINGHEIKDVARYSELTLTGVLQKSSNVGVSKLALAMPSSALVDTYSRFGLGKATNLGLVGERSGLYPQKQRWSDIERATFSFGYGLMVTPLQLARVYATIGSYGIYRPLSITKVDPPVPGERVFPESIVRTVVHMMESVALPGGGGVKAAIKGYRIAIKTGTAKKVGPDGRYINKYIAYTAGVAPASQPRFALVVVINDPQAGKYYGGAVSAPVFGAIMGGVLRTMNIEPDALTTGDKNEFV
T1 sequence (G3XD46 whole entry): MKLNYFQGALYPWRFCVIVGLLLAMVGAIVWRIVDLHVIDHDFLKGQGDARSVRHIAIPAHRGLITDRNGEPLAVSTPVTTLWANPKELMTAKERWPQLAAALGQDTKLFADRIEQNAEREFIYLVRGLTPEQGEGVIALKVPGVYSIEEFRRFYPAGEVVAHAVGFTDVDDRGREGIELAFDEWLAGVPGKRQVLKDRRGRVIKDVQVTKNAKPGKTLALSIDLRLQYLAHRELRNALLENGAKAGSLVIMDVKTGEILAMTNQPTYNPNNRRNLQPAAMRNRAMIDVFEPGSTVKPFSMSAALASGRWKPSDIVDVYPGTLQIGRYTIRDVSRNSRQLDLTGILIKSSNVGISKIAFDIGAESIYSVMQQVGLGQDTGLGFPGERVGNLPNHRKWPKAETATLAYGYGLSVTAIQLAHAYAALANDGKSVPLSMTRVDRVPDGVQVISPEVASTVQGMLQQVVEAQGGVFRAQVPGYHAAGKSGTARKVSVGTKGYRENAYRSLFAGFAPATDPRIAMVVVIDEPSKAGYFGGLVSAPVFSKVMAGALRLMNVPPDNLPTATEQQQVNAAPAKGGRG

Structure (SMILES)	MIC (K. pneumoniae UMM)	MIC (N. gonorrhoeae WHO Z)	MIC [1]	MIC (E. coli AG100A)	MIC (P. aeruginosa ATCC 27853)	MIC (N. gonorrhoeae MS11)	MIC (N. gonorrhoeae WHO M)	MIC (N. gonorrhoeae FA1090)	IC50 [2]	MIC (K. pneumoniae 848844)	MIC (E. coli AG100)	MIC (E. coli D22)	EC50 [3]
CCN1CCN(C(=O)NC(C(=O)N[C@H]2Cc3cccc(C(=O)O)c3OB2O)c2ccc(P(=O)(O)O)cc2)C1=O (stereo partly drawn) [Example 42, (3R)-3-(2-(3-ethyl-2-oxoimidazolidine-1-carboxamido)-2-(4-phosphonophenyl)acetamido)-2-hydroxy-3,4-dihydro-2H-benzo[e][1,2]oxaborinine-8-carboxylic acid]	32 to 64 µg/mL (≈ 57.1 to 114 µM)	< 1 µg/mL	< 1 µg/mL	8 to 16 µg/mL (≈ 14.3 to 28.6 µM)	> 128 µg/mL	< 1 µg/mL	< 1 µg/mL	< 1 µg/mL	< 10 µM	> 128 µg/mL	32 to 64 µg/mL (≈ 57.1 to 114 µM)	2 to 4 µg/mL (≈ 3.57 to 7.14 µM)	< 10 µM
CN1CCCN(C(=O)NC(C(=O)N[C@H]2Cc3cccc(C(=O)O)c3OB2O)c2ccc(P(=O)(O)O)cc2)C1=O (stereo partly drawn) [Example 38, (3R)-2-hydroxy-3-(2-(3-methyl-2-oxohexahydropyrimidine-1-carboxamido)-2-(4-phosphonophenyl)acetamido)-3,4-dihydro-2H-benzo[e][1,2]oxaborinine-8-carboxylic acid]	> 128 µg/mL	1 to 2 µg/mL (≈ 1.78 to 3.57 µM)	1 to 2 µg/mL (≈ 1.78 to 3.57 µM)	32 to 64 µg/mL (≈ 57.1 to 114 µM)	> 128 µg/mL	1 to 2 µg/mL (≈ 1.78 to 3.57 µM)	< 1 µg/mL	< 1 µg/mL	< 10 µM	> 128 µg/mL	> 128 µg/mL	8 to 16 µg/mL (≈ 14.3 to 28.6 µM)	10 to 50 µM
CS(=O)(=O)N1CCN(C(=O)N[C@@H](C(=O)N[C@H]2Cc3cccc(C(=O)O)c3OB2O)c2ccc(P(=O)(O)O)c(F)c2F)C1=O (single isomer, unassigned) [Example 13]	> 128 µg/mL	< 1 µg/mL	< 1 µg/mL	8 to 16 µg/mL (≈ 12.4 to 24.8 µM)	> 128 µg/mL	< 1 µg/mL	< 1 µg/mL	< 1 µg/mL	< 10 µM	> 128 µg/mL	32 to 64 µg/mL (≈ 49.5 to 99 µM)	8 to 16 µg/mL (≈ 12.4 to 24.8 µM)	< 10 µM
CS(=O)(=O)N1CCC[C@@H]1C(=O)N[C@H](C(=O)N[C@H]1Cc2cccc(C(=O)O)c2OB1O)c1ccc(P(=O)(O)O)cc1 [Example 34, (R)-2-hydroxy-3-((S)-2-((R)-1-(methylsulfonyl)pyrrolidine-2-carboxamido)-2-(4-phosphonophenyl)acetamido)-3,4-dihydro-2H-benzo[e][1,2]oxaborinine-8-carboxylic acid]	> 128 µg/mL	16 to 32 µg/mL (≈ 26.9 to 53.8 µM)	16 to 32 µg/mL (≈ 26.9 to 53.8 µM)	> 128 µg/mL	> 128 µg/mL	16 to 32 µg/mL (≈ 26.9 to 53.8 µM)	4 to 8 µg/mL (≈ 6.72 to 13.4 µM)	4 to 8 µg/mL (≈ 6.72 to 13.4 µM)	50 to 250 µM	> 128 µg/mL	> 128 µg/mL	32 to 64 µg/mL (≈ 53.8 to 108 µM)	50 to 250 µM
O=C(O)c1cccc2c1OB(O)[C@@H](NC(=O)C(NC(=O)C(F)(F)F)c1ccc(P(=O)(O)O)cc1)C2 (stereo partly drawn) [Example 172, (3R)-2-hydroxy-3-(2-(4-phosphonophenyl)-2-(2,2,2-trifluoroacetamido)acetamido)-3,4-dihydro-2H-benzo[e][1,2]oxaborinine-8-carboxylic acid]	> 128 µg/mL	16 to 32 µg/mL (≈ 31 to 62 µM)	16 to 32 µg/mL (≈ 31 to 62 µM)	> 128 µg/mL	> 128 µg/mL	16 to 32 µg/mL (≈ 31 to 62 µM)	4 to 8 µg/mL (≈ 7.75 to 15.5 µM)	4 to 8 µg/mL (≈ 7.75 to 15.5 µM)	50 to 250 µM	> 128 µg/mL	> 128 µg/mL	> 128 µg/mL	> 250 µM
CCN1CCN(C(=O)NC(C(=O)N[C@H]2Cc3cccc(C(=O)O)c3OB2O)c2ccc(S(=O)(=O)O)cc2)C(=O)C1=O (stereo partly drawn) [Example 189, (3R)-3-(2-(4-ethyl-2,3-dioxopiperazine-1-carboxamido)-2-(4-sulfophenyl)acetamido)-2-hydroxy-3,4-dihydro-2H-benzo[e][1,2]oxaborinine-8-carboxylic acid]	32 to 64 µg/mL (≈ 54.4 to 109 µM)	1 to 2 µg/mL (≈ 1.7 to 3.4 µM)	< 1 µg/mL	8 to 16 µg/mL (≈ 13.6 to 27.2 µM)	> 128 µg/mL	< 1 µg/mL	< 1 µg/mL	< 1 µg/mL	< 10 µM	> 128 µg/mL	32 to 64 µg/mL (≈ 54.4 to 109 µM)	2 to 4 µg/mL (≈ 3.4 to 6.8 µM)	10 to 50 µM
N#Cc1cccc(C(=O)N[C@@H](C(=O)N[C@H]2Cc3cccc(C(=O)O)c3OB2O)c2ccc(P(=O)(O)O)cc2)n1 [Example 180, (R)-3-((R)-2-(6-cyanopicolinamido)-2-(4-phosphonophenyl)acetamido)-2-hydroxy-3,4-dihydro-2H-benzo[e][1,2]oxaborinine-8-carboxylic acid]	> 128 µg/mL	< 1 µg/mL	< 1 µg/mL	8 to 16 µg/mL (≈ 14.5 to 29.1 µM)	> 128 µg/mL	1 to 2 µg/mL (≈ 1.82 to 3.63 µM)	< 1 µg/mL	< 1 µg/mL	< 10 µM	> 128 µg/mL	> 128 µg/mL	2 to 4 µg/mL (≈ 3.63 to 7.27 µM)	< 10 µM
CCN1CCN(C(=O)NC(C(=O)N[C@H]2Cc3cccc(C(=O)O)c3OB2O)c2c(F)cc(P(=O)(O)O)cc2F)C(=O)C1=O (stereo partly drawn) [Example 25, (3R)-3-(2-(2,6-difluoro-4-phosphonophenyl)-2-(4-ethyl-2,3-dioxopiperazine-1-carboxamido)acetamido)-2-hydroxy-3,4-dihydro-2H-benzo[e][1,2]oxaborinine-8-carboxylic acid]	32 to 64 µg/mL (≈ 51.3 to 103 µM)	< 1 µg/mL	< 1 µg/mL	32 to 64 µg/mL (≈ 51.3 to 103 µM)	> 128 µg/mL	< 1 µg/mL	< 1 µg/mL	< 1 µg/mL	< 10 µM	> 128 µg/mL	32 to 64 µg/mL (≈ 51.3 to 103 µM)	2 to 4 µg/mL (≈ 3.2 to 6.41 µM)	< 10 µM
CN1CCC[C@H]1C(=O)NC(C(=O)N[C@H]1Cc2cccc(C(=O)O)c2OB1O)c1ccc(P(=O)(O)O)cc1 (stereo partly drawn) [Example 66]	> 128 µg/mL	16 to 32 µg/mL (≈ 30.1 to 60.2 µM)	16 to 32 µg/mL (≈ 30.1 to 60.2 µM)	32 to 64 µg/mL (≈ 60.2 to 120 µM)	> 128 µg/mL	16 to 32 µg/mL (≈ 30.1 to 60.2 µM)	4 to 8 µg/mL (≈ 7.53 to 15.1 µM)	4 to 8 µg/mL (≈ 7.53 to 15.1 µM)	10 to 50 µM	> 128 µg/mL	> 128 µg/mL	32 to 64 µg/mL (≈ 60.2 to 120 µM)	50 to 250 µM
